From patent publication US8431702B2, “Therapeutically useful substituted hydropyrido [3,2,1-ij] quinoline compounds” (Allergan, Inc., priority 2008, dated 2013)
Where two headings read alike, the source gives them in different places.

Molecular target: T1, human S1P3 receptor (Homo sapiens, UniProt Q99500)
T1 construct: expressed in transfected cells
Test: FLIPR calcium (Fluo-4) assay for activation or block of activation of human S1P3 receptor in T24 cells
Assay type: cell-based
Procedure: The compounds of the invention are assessed for their ability to activate or block activation of the human S1P3 receptor in T24 cells stably expressing the human S1P3 receptor using the method described in paragraph [0067] of United States Patent Application Publication No. 20070232682, which published on Oct. 4, 2007, which is hereby incorporated by reference in its entirety.
Ten thousands cells/well are plated into 384-well poly-D-lysine coated plates one day prior to use. The growth media for the S1P3 receptor expressing cell line is McCoy's 5A medium supplemented with 10% charcoal-treated fetal bovine serum (FBS), 1% antibiotic-antimycotic and 400 μg/ml geneticin. On the day of the experiment, the cells are washed twice with Hank's Balanced Salt Solution supplemented with 20 mM HEPES (HBSS/Hepes buffer). The cells are then dye loaded with 2 μM Fluo-4 diluted in the HBSS/Hepes buffer with 1.25 mM Probenecid and incubated at 37° C. for 40 minutes. Extracellular dye is removed by washing the cell plates four times prior to placing the plates in the FLIPR (Fluorometric Imaging Plate Reader, Molecular Devices). Ligands are diluted in HBSS/Hepes buffer and prepared in 384-well microplates. The positive control, Sphingosine-1-phosphate (S1P), is diluted in HBSS/Hepes buffer with 4 mg/ml fatty acid free bovine serum albumin. The FLIPR transfers 12.5 μl from the ligand microplate to the cell plate and takes fluorescent measurements for 75 seconds, taking readings every second, and then for 2.5 minutes, taking readings every 10 seconds. Compounds are tested over the concentration range of 0.61 nM to 10,000 nM. Data for calcium ion (Ca^+2) responses are obtained in arbitrary fluorescence units and not translated into Ca^+2 concentrations. IC50 values (nM) are determined through a […] analysis using the Levenburg Marquardt algorithm.

[1] = T24 cells stably expressing the human S1P3 receptor, tested over 0.61 nM to 10,000 nM
[2] = T24 cells stably expressing the human S1P3 receptor, tested over 0.61 nM to 10,000 nM, read-out: S1P3 IC50

T1 sequence (Q99500 whole entry): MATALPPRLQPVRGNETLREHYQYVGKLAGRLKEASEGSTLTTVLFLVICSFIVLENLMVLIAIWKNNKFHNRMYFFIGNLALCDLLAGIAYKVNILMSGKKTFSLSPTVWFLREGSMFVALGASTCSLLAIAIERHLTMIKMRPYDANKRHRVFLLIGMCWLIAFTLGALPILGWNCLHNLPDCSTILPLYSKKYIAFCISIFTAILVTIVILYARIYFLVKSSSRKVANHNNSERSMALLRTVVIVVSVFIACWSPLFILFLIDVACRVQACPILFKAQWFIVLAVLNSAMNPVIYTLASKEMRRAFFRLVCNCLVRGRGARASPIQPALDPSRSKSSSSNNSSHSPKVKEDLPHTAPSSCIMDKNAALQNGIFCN

| Compound | S1P3 % Inhibition [1] [%] | IC50 [2] [nM] | IC50 [nM] |
| --- | --- | --- | --- |
| CCCSC(=O)Nc1cc2c3c(c1)C(c1ccccc1)CCN3CCC2c1ccccc1 (centres unmarked) [Compound 700] | 100 | 7 |  |
| O=C(Nc1cc2c3c(c1)C(c1ccccc1)CCN3CCC2c1ccccc1)Oc1ccccc1 (centres unmarked) [Compound 277, Phenyl 1,7-diphenyl-1,2,3,5,6,7-hexahydropyrido[3,2,1-ij]quinolin-9-ylcarbamate] | 91 |  |  |
| C=CCNC(=O)Nc1cc2c3c(c1)C(c1ccccc1)CCN3CCC2c1ccccc1 (centres unmarked) [Compound 773, 1-allyl-3-(1,7-diphenyl-1,2,3,5,6,7-hexahydropyrido[3,2,1-ij]quinolin-9-yl)urea] | 100 |  |  |
| COC(=O)Nc1cc2c3c(c1)[C@](C)(c1ccc(F)cc1)CCN3CC[C@@]2(C)c1ccc(F)cc1 [Compound 674, methyl (1S,7S)-1,7-bis(4-fluorophenyl)-1,7-dimethyl-1,2,3,5,6,7-hexahydropyrido[3,2,1-ij]quinolin-9-ylcarbamate] | 96 |  | 46 |
| O=C(Nc1cc2c3c(c1)C(c1ccccc1)CCN3CCC2c1ccccc1)OCCCCCl (centres unmarked) [Compound 206, 4-chlorobutyl 1,7-diphenyl-1,2,3,5,6,7-hexahydropyrido[3,2,1-ij]quinolin-9-ylcarbamate] | 100 |  |  |
| CCCSC(=O)Nc1cc2c3c(c1)[C@](C)(c1ccc(F)cc1)CCN3CC[C@@]2(C)c1ccc(F)cc1 [Compound 673, S-propyl (1S,7S)-1,7-bis(4-fluorophenyl)-1,7-dimethyl-1,2,3,5,6,7-hexahydropyrido[3,2,1-ij]quinolin-9-ylcarbamothioate] | 97 |  | 62 |
| CCCCNC(=O)c1cc2c3c(c1)C(c1ccccc1)CCN3CCC2c1ccccc1 (centres unmarked) [Compound 481, N-butyl-1,7-diphenyl-1,2,3,5,6,7-hexahydropyrido[3,2,1-ij]quinoline-9-carboxamide] | 98 | 210 |  |
